Laboratory results reported in PMC12471299, “Secondary Metabolites of the Marine Sponge-Derived Fungus Aspergillus subramanianii 1901NT-1.40.2 and Their Antimicrobial and Anticancer Activities” (Marine Drugs, 2025).
≈ marks a conversion by molar mass, not a printed value. Where two headings read alike, the source gives them in different places.

Assays:
[1] = test system: E. coli; set-up: method as in PMID 28498358; conditions: cited from earlier work
[2] = test system: Staphylococcus aureus ATCC 21027; experiment: Biofilm formation assay (MTT); type: cell-based
How it was run: (§1)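 Cultures grown 24 h at 37 °C on Mueller Hinton agar; compound applied at concentrations of 100 µM and below. After 18 h, growth read at OD620 and biofilm via MTT at OD570; results expressed as percent of 1% DMSO/PBS control and given as MIC50.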

[3] = test system: Candida albicans KMM 455; experiment: Biofilm formation assay (MTT); type: cell-based
How it was run: (§2)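 MIC50 values derive from percent-of-control data: 50% reduction of growth (OD620, 18 h) or of biofilm (MTT, OD570, 18 h). Test compound ≤100 µM; 1% DMSO in PBS served as negative control.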

[4] = test system: Escherichia coli VKPM (B-7935); experiment: Biofilm formation assay (MTT); type: cell-based
How it was run: as §2

[5] = Cell viability assay (MTT); type: cell-based, rat; conditions: rat, H9c2 cardiomyocytes, read-out: Cytotoxicity IC50
How it was run: (§3)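 Following a 24 h attachment period, rat H9c2 (3 × 10^3/well), HaCaT (1 × 10^4/well), MCF-10A and MDA-MB-231 (each 5 × 10^3/well) cells received compounds at concentrations up to 100 µM. After 24 or 48 h, MTT viability was determined as percent of DMSO-treated wells.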

[6] = test system: H9c2 cardiomyocytes; experiment: Cell viability assay (MTT); type: cell-based, rat; conditions: for IC50: read-out: Cytotoxicity IC50
How it was run: as §3

[7] = test system: Staphylococcus aureus ATCC 21027; experiment: Antimicrobial assay, growth inhibition (optical density); type: cell-based
How it was run: as §1

[8] = test system: Candida albicans KMM 455; experiment: as above; type: cell-based; conditions: C. albicans; for MIC50: 18 h
How it was run: as §1

[9] = test system: Escherichia coli VKPM (B-7935); experiment: as above; type: cell-based
How it was run: as §1

[10] = test system: HaCaT keratinocytes; experiment: Cell viability assay (MTT); type: cell-based, human; conditions: for IC50: read-out: Cytotoxicity IC50
How it was run: as §3

[11] = test system: MCF-10A breast epithelial cells; experiment: Cell viability assay (MTT); type: cell-based, human; conditions: MCF10A
How it was run: as §3

[12] = test system: MCF-7 breast cancer cells; experiment: Cell viability assay (MTT); type: cell-based, human
[13] = Cell viability assay (MTT); type: cell-based, human; conditions: human, read-out: Cytotoxicity IC50
How it was run: as §3

[14] = test system: MDA-MB-231 breast cancer cells; experiment: Cell viability assay (MTT); type: cell-based, human; conditions: for IC50: read-out: Cytotoxicity IC50
How it was run: as §3

[15] = test system: CNS glioma SF-268 cells; conditions: cited from earlier work
[16] = test system: breast cancer MCF-7 cells; conditions: cited from earlier work
[17] = test system: non-small cell lung cancer NCIH460 cells; conditions: cited from earlier work

## C=C(C)C1CCC23C(O)CCC(C)C2(C)CCC(C)C3C1c1c[nH]c2ccccc12 (stereo not drawn) [Compound 5, 10,23-dihydro-24,25-dehydroaflavinine]
[1]
  MIC50: 2.0 µg/mL (≈ 4.93 µM)
[2]; S. aureus
  MIC100 of biofilm formation: 10.45 ± 0.96 µM
[3]; C. albicans
  MIC100 of biofilm formation: 12.01 ± 1.01 µM
[4]; E. coli
  MIC100 of biofilm formation: 23.08 ± 2.00 µM
[5]; H9c2, 24 h
  IC50 at 24 h: 9.8 ± 1.3 µM
[5]; H9c2, 48 h
  IC50 at 48 h: 57.2 ± 3 µM
[6]; H9c2, 24 h, 1.0 µM
  cell viability: 101.9 ± 2.9 % of control
[6]; H9c2, 24 h, 10.0 µM
  cell viability: 50.5 ± 1.8 % of control
[6]; H9c2, 24 h, 100.0 µM
  cell viability: 33.6 ± 0.3 % of control
[6]; H9c2, 48 h, 1.0 µM
  cell viability: 105.6 ± 3.4 % of control
[6]; H9c2, 48 h, 10.0 µM
  cell viability: 94.0 ± 3.0 % of control
[6]; H9c2, 48 h, 100.0 µM
  cell viability: 10.1 ± 0.2 % of control
[7]; Staphylococcus aureus, ATCC21027, S. aureus, read-out: total inhibition (MIC100) of growth
  MIC: 6.85 ± 0.53 µM (≈ 2.78 µg/mL)
[8]; Candida albicans, KMM455, 18 h
  MIC50: 7 to 10 µM (≈ 2.84 to 4.06 µg/mL)
[8]; Candida albicans, KMM455, read-out: total inhibition (MIC100) of growth
  MIC: 11.5 ± 0.9 µM (≈ 4.66 µg/mL)
[9]; Escherichia coli, E. coli, read-out: total inhibition (MIC100) of growth
  MIC: 12.4 ± 1.02 µM (≈ 5.05 µg/mL)
[10]; 24 h, 1.0 µM
  cell viability: 92.3 ± 5.0 % of control
[10]; 24 h, 10.0 µM
  cell viability: 88.3 ± 8.6 % of control
[10]; 24 h, 100.0 µM
  cell viability: 7.8 ± 0.3 % of control
[10]; 48 h, 1.0 µM
  cell viability: 72.2 ± 4.3 % of control
[10]; 48 h, 10.0 µM
  cell viability: 56.8 ± 4.8 % of control
[10]; 48 h, 100.0 µM
  cell viability: 16.8 ± 0.2 % of control
[11]; 24 h, 1.0 µM
  cell viability: 101.7 ± 4.4 % of control
[11]; 24 h, 10.0 µM
  cell viability: 95.4 ± 2.3 % of control
[11]; 24 h, 100.0 µM
  cell viability: 16.1 ± 8.6 % of control
[11]; 48 h, 1.0 µM
  cell viability: 92.0 ± 0.9 % of control
[11]; 48 h, 10.0 µM
  cell viability: 93.9 ± 6.4 % of control
[11]; 48 h, 100.0 µM
  cell viability: 9.9 ± 0.2 % of control
[12]; MCF-7, 24 h, 1.0 µM
  cell viability: 100.5 ± 0.9 % of control
[12]; MCF-7, 24 h, 10.0 µM
  cell viability: 97.0 ± 2.6 % of control
[12]; MCF-7, 24 h, 100.0 µM
  cell viability: 10.0 ± 1.0 % of control
[12]; MCF-7, 48 h, 1.0 µM
  cell viability: 78.5 ± 9.9 % of control
[12]; MCF-7, 48 h, 10.0 µM
  cell viability: 81.6 ± 3.3 % of control
[12]; MCF-7, 48 h, 100.0 µM
  cell viability: 21.2 ± 0.1 % of control
[13]; HaCaT keratinocytes, 24 h
  IC50 at 24 h: 52.8 ± 1.1 µM
[13]; HaCaT keratinocytes, 48 h
  IC50 at 48 h: 25.3 ± 0.8 µM
[13]; MCF-7 breast cancer cells, MCF-7, 24 h
  IC50 at 24 h: 58.6 ± 4.2 µM
[13]; MCF-7 breast cancer cells, MCF-7, 48 h
  IC50 at 48 h: 53.5 ± 1.1 µM
[13]; MCF-10A breast epithelial cells, MCF10A, 24 h
  IC50 at 24 h: 61.5 ± 1.3 µM
[13]; MCF-10A breast epithelial cells, MCF10A, 48 h
  IC50 at 48 h: 57.1 ± 2.8 µM
[13]; MDA-MB-231 breast cancer cells, MDA-MB-231, 24 h
  IC50 at 24 h: 62.9 ± 3.1 µM
[13]; MDA-MB-231 breast cancer cells, MDA-MB-231, 48 h
  IC50 at 48 h: 61.3 ± 2.1 µM
[14]; MDA-MB-231, 24 h, 1.0 µM
  cell viability: 96.3 ± 7.5 % of control
[14]; MDA-MB-231, 24 h, 10.0 µM
  cell viability: 91.3 ± 6.1 % of control
[14]; MDA-MB-231, 24 h, 100.0 µM
  cell viability: 21.1 ± 0.9 % of control
[14]; MDA-MB-231, 48 h, 1.0 µM
  cell viability: 103.2 ± 2.4 % of control
[14]; MDA-MB-231, 48 h, 10.0 µM
  cell viability: 102.3 ± 4.1 % of control
[14]; MDA-MB-231, 48 h, 100.0 µM
  cell viability: 10.6 ± 0.2 % of control

## asterredione [Compound 9]
[2]; S. aureus, 18 h
  Biofilm formation, MIC50: >100 µM
[2]; at / up to 100 µM
  effect on S. aureus biofilm formation: did not affect
[3]; C. albicans, 18 h
  Biofilm formation, MIC50: >100 µM
[3]; at 100 µM
  prevention of C. albicans biofilm formation: 41.18 ± 4.91%
[4]; E. coli, 18 h
  Biofilm formation, MIC50: >100 µM
[4]; at / up to 100 µM
  effect on E. coli biofilm formation: did not affect
[6]; H9c2, 100 µM for 48 h
  decrease of viability: 38%
[6]; H9c2, 24 h, 1.0 µM
  cell viability: 101.1 ± 6.6 % of control
[6]; H9c2, 24 h, 10.0 µM
  cell viability: 101.7 ± 3.2 % of control
[6]; H9c2, 24 h, 100.0 µM
  cell viability: 73.1 ± 5.1 % of control
[6]; H9c2, 24 h
  IC50: > 100 µM
[6]; H9c2, 48 h, 1.0 µM
  cell viability: 90.2 ± 7.1 % of control
[6]; H9c2, 48 h, 10.0 µM
  cell viability: 93.0 ± 10.4 % of control
[6]; H9c2, 48 h, 100.0 µM
  cell viability: 62.2 ± 10.4 % of control
[6]; H9c2, 48 h
  IC50: > 100 µM
[6]; H9c2, at 10 µM
  toxicity: not toxic
[15]
  cytotoxic activity: moderate cytotoxic activity
[7]; S. aureus, 18 h
  MIC50: >100 µM
[7]; at / up to 100 µM
  effect on S. aureus growth: did not affect
[8]
  MIC50: >100 µM
[9]; E. coli, 18 h
  MIC50: >100 µM
[9]; at / up to 100 µM
  effect on E. coli growth: did not affect
[16]
  cytotoxic activity: moderate cytotoxic activity
[17]
  cytotoxic activity: moderate cytotoxic activity
[10]; 100 µM for 48 h
  decrease of viability: 23%
[10]; 24 h, 1.0 µM
  cell viability: 88.7 ± 3.0 % of control
[10]; 24 h, 10.0 µM
  cell viability: 79.2 ± 2.1 % of control
[10]; 24 h, 100.0 µM
  cell viability: 62.0 ± 6.9 % of control
[10]; 24 h
  IC50: > 100 µM
[10]; 48 h, 1.0 µM
  cell viability: 99.5 ± 2.3 % of control
[10]; 48 h, 10.0 µM
  cell viability: 92.6 ± 11.2 % of control
[10]; 48 h, 100.0 µM
  cell viability: 77.1 ± 1.5 % of control
[10]; 48 h
  IC50: > 100 µM
[10]; at 10 µM
  toxicity: not toxic
[11]; 24 h, 1.0 µM
  cell viability: 100.7 ± 0.9 % of control
[11]; 24 h, 10.0 µM
  cell viability: 97.5 ± 3.5 % of control
[11]; 24 h, 100.0 µM
  cell viability: 66.3 ± 3.6 % of control
[11]; 24 h, read-out: Cytotoxicity IC50
  IC50: > 100 µM
[11]; 48 h, 1.0 µM
  cell viability: 96.7 ± 5.1 % of control
[11]; 48 h, 10.0 µM
  cell viability: 79.4 ± 4.3 % of control
[11]; 48 h, 100.0 µM
  cell viability: 61.5 ± 1.9 % of control
[11]; 48 h, read-out: Cytotoxicity IC50
  IC50: > 100 µM
[11]; time not stated, read-out: half-maximal concentration (IC50), viability
  IC50: > 100 µM
[12]; MCF-7, 24 h, read-out: Cytotoxicity IC50
  IC50: 51.3 ± 2.6 µM
[12]; MCF-7, 48 h, 1.0 µM
  cell viability: 97.8 ± 1.1 % of control
[12]; MCF-7, 48 h, 10.0 µM
  cell viability: 78.6 ± 7.6 % of control
[12]; MCF-7, 48 h, 100.0 µM
  cell viability: 21.2 ± 6.6 % of control
[12]; MCF-7, 48 h, read-out: Cytotoxicity IC50
  IC50: 55.1 ± 3.9 µM
[12]; MCF-7, time not stated, read-out: IC50, viability
  IC50: ~50 µM
[14]; MDA-MB-231, 24 h, 1.0 µM
  cell viability: 96.3 ± 3.2 % of control
[14]; MDA-MB-231, 24 h, 10.0 µM
  cell viability: 106.3 ± 9.9 % of control
[14]; MDA-MB-231, 24 h, 100.0 µM
  cell viability: 82.5 ± 1.3 % of control
[14]; MDA-MB-231, 24 h
  IC50: > 100 µM
[14]; MDA-MB-231, 48 h, 1.0 µM
  cell viability: 103.2 ± 0.9 % of control
[14]; MDA-MB-231, 48 h, 10.0 µM
  cell viability: 90.5 ± 2.7 % of control
[14]; MDA-MB-231, 48 h, 100.0 µM
  cell viability: 52.9 ± 3.4 % of control
[14]; MDA-MB-231, 48 h
  IC50: ≥ 100 µM
